Source: PubChem BioAssay AID330 (DTP/NCI, 2004)
“And” between values parts separate entries of the source, which are not always exact repeats. Identical values can stand only once. Toxic doses and inconclusive results are not listed.

Tested on: P388 leukemia ip, CD2F1 mice, survival T/C
Test: NCI In Vivo Anticancer Drug Screen. Data for tumor model P388 Leukemia (intraperitoneal) in CD2F1 (CDF1) mice
Conditions: endpoint: median survival time, higher = longer survival
How it was run: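 Mice carrying the transplanted tumor received test compound or vehicle. Survival was recorded in each group, and the value is the treated-group measurement divided by that of the vehicle-treated control group.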

[1] = dose: 100.0 mg/kg/injection, schedule: Q04DX002 (ip), vehicle: saline with Tween-80
[2] = dose: 200.0 mg/kg/injection, schedule: Q04DX002 (ip), vehicle: saline with Tween-80
[3] = dose: 400.0 mg/kg/injection, schedule: Q04DX002 (ip), vehicle: saline with Tween-80
[4] = dose: 50.0 mg/kg/injection, schedule: Q01DX009 (ip), vehicle: Klucel (hydroxypropylcellulose) (HPC)
[5] = dose: 100.0 mg/kg/injection, schedule: Q01DX009 (ip), vehicle: Klucel (hydroxypropylcellulose) (HPC)
[6] = dose: 200.0 mg/kg/injection, schedule: Q01DX009 (ip), vehicle: Klucel (hydroxypropylcellulose) (HPC)
[7] = dose: 50.0 mg/kg/injection, schedule: Q01DX009 (ip), vehicle: saline with Tween-80

For `COC(=O)c1nn(-c2ccccc2)c2nc3ccccc3c-2c1C(=O)OC`, the T/C [1] was 108 % of control, the T/C [2] was 108 % of control and the T/C [3] was 97 % of control.

With `CCCCC/C(=C/C=C/c1ccc(Cl)cc1)CN(C)C` the T/C [4] was 111 % of control and the T/C [5] was 110 % of control.

`Cc1c(COC(=O)NC2CCCCC2)c(COC(=O)NC2CCCCC2)c2c3ccccc3c3ccccc3n12` was tested, and the T/C (dose: 12.5 mg/kg/injection, schedule: Q01DX009 (ip), vehicle: distilled water + Tween-80) was 106 % of control, the T/C (dose: 25.0 mg/kg/injection, schedule: Q01DX009 (ip), vehicle: distilled water + Tween-80) was 100 % of control and 93 % of control and the T/C (dose: 50.0 mg/kg/injection, schedule: Q01DX009 (ip), vehicle: distilled water + Tween-80) was 101 % of control and 106 % of control. For the same compound, the T/C (dose: 100.0 mg/kg/injection, schedule: Q01DX009 (ip), vehicle: distilled water + Tween-80) was 101 % of control and 110 % of control and the T/C (dose: 200.0 mg/kg/injection, schedule: Q01DX009 (ip), vehicle: distilled water + Tween-80) was 110 % of control.

In the case of `COC(=O)C1=C/C=C\CN(/C=C/c2ccccc2)/C=C\1C(=O)OC`, the T/C (dose: 100.0 mg/kg/injection, schedule: Q04DX003 (ip), vehicle: alcohol) is reported as 97 % of control, the T/C (dose: 200.0 mg/kg/injection, schedule: Q04DX003 (ip), vehicle: alcohol) is reported as 112 % of control and the T/C (dose: 400.0 mg/kg/injection, schedule: Q04DX003 (ip), vehicle: alcohol) is reported as 94 % of control.

With `c1ncn(Cn2cncn2)n1` the T/C (dose: 60.0 mg/kg/injection, schedule: Q01DX005 (ip), vehicle: Klucel (hydroxypropylcellulose) (HPC)) was 105 % of control, the T/C (dose: 120.0 mg/kg/injection, schedule: Q01DX005 (ip), vehicle: Klucel (hydroxypropylcellulose) (HPC)) was 107 % of control and the T/C (dose: 240.0 mg/kg/injection, schedule: Q01DX005 (ip), vehicle: Klucel (hydroxypropylcellulose) (HPC)) was 101 % of control.

For `CCSC(=S)NC#N`, the T/C [4] was 109 % of control, the T/C [5] was 93 % of control and the T/C [6] was 88 % of control.

`O=S1C2CCC(Cl)C1CCC2Cl` (stereo not given) was tested, and the T/C (dose: 0.78 mg/kg/injection, schedule: Q01DX009 (ip), vehicle: Klucel (hydroxypropylcellulose) (HPC)) was 112 % of control and the T/C (dose: 1.56 mg/kg/injection, schedule: Q01DX009 (ip), vehicle: Klucel (hydroxypropylcellulose) (HPC)) was 90 % of control.

For `CCN=C(C)C1=C(O)c2ccccc2C1=O`, the T/C [1] was 97 % of control, the T/C [2] was 98 % of control and the T/C [3] was 98 % of control.

In the case of `CON(C)CC(Cl)c1ccccc1` (stereo not given), the T/C (dose: 12.5 mg/kg/injection, schedule: Q01DX009 (ip), vehicle: saline with Tween-80) is reported as 109 % of control, the T/C (dose: 25.0 mg/kg/injection, schedule: Q01DX009 (ip), vehicle: saline with Tween-80) is reported as 109 % of control and the T/C [7] is reported as 104 % of control.

For `CCCCOP(O)(=S)OCCCC.[Fe]`, the T/C (dose: 50.0 mg/kg/injection, schedule: Q01DX001 (ip), vehicle: Klucel (hydroxypropylcellulose) (HPC)) was 102 % of control, the T/C (dose: 100.0 mg/kg/injection, schedule: Q01DX001 (ip), vehicle: Klucel (hydroxypropylcellulose) (HPC)) was 102 % of control and the T/C (dose: 200.0 mg/kg/injection, schedule: Q01DX001 (ip), vehicle: Klucel (hydroxypropylcellulose) (HPC)) was 101 % of control.

With `NC(CNC(=O)CBr)C(=O)O` (stereo not given) the T/C (dose: 6.25 mg/kg/injection, schedule: Q01DX005 (ip), vehicle: water) was 117 % of control and 118 % of control and the T/C (dose: 100.0 mg/kg/injection, schedule: Q01DX005 (ip), vehicle: water) was 152 % of control.

`C=CCc1ccc(O)c(OC)c1` was tested, and the T/C (dose: 50.0 mg/kg/injection, schedule: Q01DX009 (ip), vehicle: other) was 101 % of control and the T/C (dose: 100.0 mg/kg/injection, schedule: Q01DX009 (ip), vehicle: other) was 107 % of control.

For `c1cc2c3c(cccc3c1)C(C1Cc3cccc4cccc1c34)C2` (stereo not given), the T/C [4] was 97 % of control, the T/C [5] was 100 % of control and the T/C [6] was 88 % of control.

With `O=C1OCC[C@@H]1O` the T/C (dose: 60.0 mg/kg/injection, schedule: Q01DX005 (ip), vehicle: saline) was 101 % of control, the T/C (dose: 120.0 mg/kg/injection, schedule: Q01DX005 (ip), vehicle: saline) was 101 % of control and the T/C (dose: 240.0 mg/kg/injection, schedule: Q01DX005 (ip), vehicle: saline) was 97 % of control.

For `COc1cc(NCCN(C)C(C)Cc2ccccc2)c2ncccc2c1` (stereo not given), the T/C (dose: 50.0 mg/kg/injection, schedule: Q01DX005 (ip), vehicle: saline) was 106 % of control and the T/C (dose: 100.0 mg/kg/injection, schedule: Q01DX005 (ip), vehicle: saline) was 104 % of control.

`Cc1ccc(N/N=C2\CC(=O)NC(=O)N2)cc1C` was tested, and the T/C [7] was 104 % of control, the T/C (dose: 100.0 mg/kg/injection, schedule: Q01DX009 (ip), vehicle: saline with Tween-80) was 104 % of control and the T/C (dose: 200.0 mg/kg/injection, schedule: Q01DX009 (ip), vehicle: saline with Tween-80) was 99 % of control.
